pIC50: −log10 of the molar value.

This is an account of results in patent US9212182B2, “Bicyclic sulfonamide compounds as sodium channel inhibitors” (AMGEN INC., priority 2013, dated 2015).

Chain of Nav 1.7 (Q15858 whole entry): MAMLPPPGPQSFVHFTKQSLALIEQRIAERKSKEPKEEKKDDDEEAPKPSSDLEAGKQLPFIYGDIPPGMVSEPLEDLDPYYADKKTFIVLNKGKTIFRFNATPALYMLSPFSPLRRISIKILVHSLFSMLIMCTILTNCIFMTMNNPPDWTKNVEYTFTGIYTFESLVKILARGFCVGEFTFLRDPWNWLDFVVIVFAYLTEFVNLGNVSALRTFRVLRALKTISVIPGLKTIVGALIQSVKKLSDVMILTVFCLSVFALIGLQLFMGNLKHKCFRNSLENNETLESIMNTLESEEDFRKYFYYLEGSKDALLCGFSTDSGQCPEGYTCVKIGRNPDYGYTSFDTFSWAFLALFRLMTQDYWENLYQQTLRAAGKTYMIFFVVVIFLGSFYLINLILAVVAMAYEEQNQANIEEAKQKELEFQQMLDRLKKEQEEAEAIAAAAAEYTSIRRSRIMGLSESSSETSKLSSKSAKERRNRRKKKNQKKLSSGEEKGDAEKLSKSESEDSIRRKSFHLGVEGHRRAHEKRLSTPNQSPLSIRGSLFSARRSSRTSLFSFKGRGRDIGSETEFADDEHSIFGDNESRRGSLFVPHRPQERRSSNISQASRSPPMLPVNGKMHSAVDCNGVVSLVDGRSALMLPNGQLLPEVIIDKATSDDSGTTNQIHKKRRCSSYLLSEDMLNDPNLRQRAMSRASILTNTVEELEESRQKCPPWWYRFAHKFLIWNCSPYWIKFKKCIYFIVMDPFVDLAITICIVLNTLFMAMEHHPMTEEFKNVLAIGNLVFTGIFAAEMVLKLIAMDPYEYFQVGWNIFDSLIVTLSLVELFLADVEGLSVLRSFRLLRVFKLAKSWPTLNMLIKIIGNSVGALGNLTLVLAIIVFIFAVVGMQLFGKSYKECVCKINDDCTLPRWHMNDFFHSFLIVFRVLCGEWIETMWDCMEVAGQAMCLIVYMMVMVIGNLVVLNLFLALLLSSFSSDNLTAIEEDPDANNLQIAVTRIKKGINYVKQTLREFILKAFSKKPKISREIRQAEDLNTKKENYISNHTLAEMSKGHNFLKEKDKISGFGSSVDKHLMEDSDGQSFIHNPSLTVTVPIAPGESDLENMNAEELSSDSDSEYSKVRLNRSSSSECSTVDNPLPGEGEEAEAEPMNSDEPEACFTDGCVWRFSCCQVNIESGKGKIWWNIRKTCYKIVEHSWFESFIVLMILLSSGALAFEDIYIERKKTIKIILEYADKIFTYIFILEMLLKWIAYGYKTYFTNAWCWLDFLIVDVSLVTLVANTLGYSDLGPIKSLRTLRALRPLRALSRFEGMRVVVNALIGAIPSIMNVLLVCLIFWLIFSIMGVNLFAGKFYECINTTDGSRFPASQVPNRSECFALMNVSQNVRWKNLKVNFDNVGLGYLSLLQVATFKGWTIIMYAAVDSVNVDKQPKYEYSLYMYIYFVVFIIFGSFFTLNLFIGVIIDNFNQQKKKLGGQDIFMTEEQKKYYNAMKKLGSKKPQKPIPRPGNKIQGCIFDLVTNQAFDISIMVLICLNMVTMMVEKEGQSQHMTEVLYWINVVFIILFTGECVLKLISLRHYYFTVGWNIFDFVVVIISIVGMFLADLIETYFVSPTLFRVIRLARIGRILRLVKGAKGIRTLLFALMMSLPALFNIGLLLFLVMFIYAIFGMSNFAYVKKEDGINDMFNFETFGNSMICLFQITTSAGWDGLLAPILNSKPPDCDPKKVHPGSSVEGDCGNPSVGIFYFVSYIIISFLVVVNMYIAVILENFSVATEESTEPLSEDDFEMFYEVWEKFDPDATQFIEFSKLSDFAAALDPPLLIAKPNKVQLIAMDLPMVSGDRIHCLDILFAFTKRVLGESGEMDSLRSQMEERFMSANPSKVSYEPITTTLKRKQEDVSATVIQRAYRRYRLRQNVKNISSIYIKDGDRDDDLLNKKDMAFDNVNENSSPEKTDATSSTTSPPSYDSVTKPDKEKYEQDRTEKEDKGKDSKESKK

The experiment has as its target Nav 1.7 (Homo sapiens (Human), UniProt Q15858). Description: in-vitro Nav 1.7 PX (IC50). Particulars: in-vitro Nav 1.7 PX data. It counts as cell-based.
As usually defined, the pIC50 is the IC50 on a negative log10 scale, so that one unit is a factor of ten. Read a low pIC50 as a high IC50. `COc1cc(-c2ccc(F)c(F)c2)c(C)cc1-n1c(=O)ccc2cc(S(=O)(=O)Nc3ncccn3)ccc21` [Example 958, 1-(3′,4′-difluoro-5-methoxy-2-methyl-4-biphenylyl)-2-oxo-N-2-pyrimidinyl-1,2-dihydro-6-quinolinesulfonamide] had a pIC50 of 7.55.
`COc1cc(-c2cc(OC)c(-n3c(=O)ccc4cc(S(=O)(=O)Nc5ncccn5)ccc43)cc2C)ccc1F` [Example 960, 1-(4′-fluoro-3′,5-dimethoxy-2-methyl-4-biphenylyl)-2-oxo-N-2-pyrimidinyl-1,2-dihydro-6-quinolinesulfonamide] showed a pIC50 of 7.44.
On to `CCOc1cccc(-c2cc(OC)c(-n3c(=O)ccc4cc(S(=O)(=O)Nc5ncccn5)ccc43)cc2C)c1` [Example 963, 1-(3′-ethoxy-5-methoxy-2-methyl-4-biphenylyl)-2-oxo-N-2-pyrimidinyl-1,2-dihydro-6-quinolinesulfonamide], for which the pIC50 is 7.57.
Consider `COc1cc(-c2cccc(OC)c2F)c(C)cc1-n1c(=O)ccc2cc(S(=O)(=O)Nc3ncccn3)ccc21` [Example 964, 1-(2′-fluoro-3′,5-dimethoxy-2-methyl-4-biphenylyl)-2-oxo-N-2-pyrimidinyl-1,2-dihydro-6-quinolinesulfonamide], for which the negative-log IC50 (pIC50) is 6.61.
`COc1ccc(F)c(-c2cc(OC)c(-n3c(=O)ccc4cc(S(=O)(=O)Nc5ncccn5)ccc43)cc2C)c1` [Example 965, 1-(2′-fluoro-5,5′-dimethoxy-2-methyl-4-biphenylyl)-2-oxo-N-2-pyrimidinyl-1,2-dihydro-6-quinolinesulfonamide] gave a pIC50 of 7.13.
In turn, `COc1cc(-c2cc(OC)c(-n3c(=O)ccc4cc(S(=O)(=O)Nc5ncccn5)ccc43)cc2C)ccc1C` [Example 966, 1-(3′,5-dimethoxy-2,4′-dimethyl-4-biphenylyl)-2-oxo-N-2-pyrimidinyl-1,2-dihydro-6-quinolinesulfonamide] showed a pIC50 of 7.19.
`COc1cc(C)cc(-c2cc(OC)c(-n3c(=O)ccc4cc(S(=O)(=O)Nc5ncccn5)ccc43)cc2C)c1` [Example 967, 1-(3′,5-dimethoxy-2,5′-dimethyl-4-biphenylyl)-2-oxo-N-2-pyrimidinyl-1,2-dihydro-6-quinolinesulfonamide] gave a pIC50 of 7.85.
Then `COc1cc(-c2cccc(OC)c2C)c(C)cc1-n1c(=O)ccc2cc(S(=O)(=O)Nc3ncccn3)ccc21` [Example 968, 1-(3′,5-dimethoxy-2,2′-dimethyl-4-biphenylyl)-2-oxo-N-2-pyrimidinyl-1,2-dihydro-6-quinolinesulfonamide], with 7.24; and `COc1cc(-c2cc(C)ccc2F)c(C)cc1-n1c(=O)ccc2cc(S(=O)(=O)Nc3ncccn3)ccc21` [Example 970, 1-(2′-fluoro-5-methoxy-2,5′-dimethyl-4-biphenylyl)-2-oxo-N-2-pyrimidinyl-1,2-dihydro-6-quinolinesulfonamide], with 7.62; and `COc1cc(-c2ccc(C)c(Cl)c2)c(F)cc1-n1c(=O)ccc2cc(S(=O)(=O)Nc3ccon3)c(F)cc21` [Example 979, 1-(3′-chloro-2-fluoro-5-methoxy-4′-methyl-4-biphenylyl)-7-fluoro-N-3-isoxazolyl-2-oxo-1,2-dihydro-6-quinolinesulfonamide], with 7.68.
Molecule `COc1cc(-c2cccc(C(F)(F)F)c2)c(F)cc1-n1c(=O)ccc2cc(S(=O)(=O)Nc3ccon3)c(F)cc21` [Example 980, 7-fluoro-1-(2-fluoro-5-methoxy-3′-(trifluoromethyl)-4-biphenylyl)-N-3-isoxazolyl-2-oxo-1,2-dihydro-6-quinolinesulfonamide] had a pIC50 of 7.66.
`COc1cc(-c2cccc(C(F)(F)F)c2)ccc1-n1c(=O)ccc2cc(S(=O)(=O)Nc3ncccn3)c(F)cc21` [Example 982, 7-fluoro-1-(3-methoxy-3′-(trifluoromethyl)-4-biphenylyl)-2-oxo-N-2-pyrimidinyl-1,2-dihydro-6-quinolinesulfonamide] had a pIC50 of 7.42.
